Where two headings read alike, the source gives them in different places.
What was measured:
Smurf-1 = Smurf-1 (Homo sapiens, UniProt Q9HCE7); test: biochemical; type: biochemical; details: biochemical autoubiquitinylation TR-FRET, 45 min incubation, 8-point dose-response 3 nM to 10 uM
From the text: (§1) To determine the HECT E3 ligase selectivity of the compounds, a panel of biochemical HECT E3 ligase autoubiquitinylation assays was employed (Smurf-1, Smurf-2, WWP1, WWP2, ITCH, Nedd4, Nedd4L and E6AP). The conjugation of ubiquitin to a protein substrate is a multistep process. In an initial ATP-requiring step, a thioester bond is formed between the carboxyl terminus of ubiquitin and an internal cystein residue of the ubiquitin-activating enzyme (E1). Activated ubiquitin is then transferred to a specific cystein residue of an ubiquitin-conjugating enzyme (E2). E2s donate ubiquitin to a HECT E3 ligase (E3) from which it is transferred to the substrate protein. HECT E3 ligases can auto-ubiquitinylate. This event is detected in the TR-FRET (Time-Resolved Fluorescence Resonance Energy Transfer) assay used in this panel. The reaction mix contains E1, E2, tagged-E3, biotin-conjugated ubiquitin, the compound and ATP in a suitable buffer and is incubated for 45 minutes to allow auto-ubiquitinylation of the E3 ligase. To measure the extent of ubiquitinylated E3 ligase by TR-FRET, the donor fluorophore Europium cryptate (Eu3+ cryptate), conjugated to streptavidin which subsequently binds to biotinylated ubiquitin, and the modified allophycocyanin XL665 (HTRF® primary acceptor fluorophore) coupled to a tag-specific antibody (HA, His or GST), which recognizes the respective E3 ligase fusion proteins, are added after the reaction is complete. When these two fluorophores are brought together by a biomolecular interaction (in this case ubiquitinylation of the E3 ligase), a portion of the energy captured by the Cryptate during excitation is released through fluorescence emission at 620 nm, while the remaining energy is transferred to XL665. This energy is then released by XL665 as specific fluorescence at 665 nm. Light at 665 nm is emitted only through FRET with Europium.
(§2) Test and reference compounds are prepared at 180×[final] in 90% DMSO, and diluted 1:3 in 90% DMSO.
(§3) For the biochemical assay panel, 50 nl of the test compounds, reference compounds and buffer/DMSO control are transferred to the respective wells of a 384-well white GREINER “SMALL VOLUME” PS plate. The assay panel is run at room temperature on a Biomek FX liquid handling workstation. To the assay plates containing 50 nl compound or control solutions in 90% DMSO, 4.5 ul of E3 ligase solution were added per well, followed by 4.5 ul of the pre-incubated E1/E2/Ub mix or the pre-diluted ubiquitin (LOW control). Plates are shaken vigorously after each addition. In this assay the compound concentrations range from 3 nM to 10 uM in an 8-point dose-response curve.
(§4) After an incubation time of 45 min in the dark, the plates are transferred into the Pherastar fluorescence reader to measure the TR-FRET signal.

Smurf-2 = Smurf-2 (Homo sapiens, UniProt Q9HAU4); test: HECT E3 ligase autoubiquitinylation TR-FRET assay, Smurf-2; type: biochemical
Smurf-2, sequence (Q9HAU4 whole entry, species assumed): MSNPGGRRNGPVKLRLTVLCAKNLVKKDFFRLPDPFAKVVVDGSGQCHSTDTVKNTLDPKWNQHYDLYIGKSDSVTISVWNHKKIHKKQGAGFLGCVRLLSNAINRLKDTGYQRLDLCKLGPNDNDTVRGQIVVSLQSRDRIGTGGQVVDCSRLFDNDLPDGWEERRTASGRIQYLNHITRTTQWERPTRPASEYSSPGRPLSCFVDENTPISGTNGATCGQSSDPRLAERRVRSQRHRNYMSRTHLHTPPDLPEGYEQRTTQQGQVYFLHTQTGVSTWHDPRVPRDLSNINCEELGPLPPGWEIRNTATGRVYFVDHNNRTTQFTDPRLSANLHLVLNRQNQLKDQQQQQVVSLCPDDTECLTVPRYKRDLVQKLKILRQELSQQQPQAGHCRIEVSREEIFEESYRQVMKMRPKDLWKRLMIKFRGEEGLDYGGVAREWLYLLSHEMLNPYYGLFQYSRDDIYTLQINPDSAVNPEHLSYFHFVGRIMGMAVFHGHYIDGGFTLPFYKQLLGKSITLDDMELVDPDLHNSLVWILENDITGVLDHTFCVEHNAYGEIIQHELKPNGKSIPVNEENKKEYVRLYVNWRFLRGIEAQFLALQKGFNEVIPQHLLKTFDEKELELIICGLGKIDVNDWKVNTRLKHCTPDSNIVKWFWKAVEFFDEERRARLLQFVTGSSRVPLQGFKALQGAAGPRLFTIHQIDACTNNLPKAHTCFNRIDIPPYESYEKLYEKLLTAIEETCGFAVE
From the text: as §1, §2, §3, §4

[1] = biochemical autoubiquitinylation TR-FRET, 45 min incubation, 8-point dose-response 3 nM to 10 uM, read-out: Smurf-2/IC50

Smurf-1, sequence (Q9HCE7 whole entry): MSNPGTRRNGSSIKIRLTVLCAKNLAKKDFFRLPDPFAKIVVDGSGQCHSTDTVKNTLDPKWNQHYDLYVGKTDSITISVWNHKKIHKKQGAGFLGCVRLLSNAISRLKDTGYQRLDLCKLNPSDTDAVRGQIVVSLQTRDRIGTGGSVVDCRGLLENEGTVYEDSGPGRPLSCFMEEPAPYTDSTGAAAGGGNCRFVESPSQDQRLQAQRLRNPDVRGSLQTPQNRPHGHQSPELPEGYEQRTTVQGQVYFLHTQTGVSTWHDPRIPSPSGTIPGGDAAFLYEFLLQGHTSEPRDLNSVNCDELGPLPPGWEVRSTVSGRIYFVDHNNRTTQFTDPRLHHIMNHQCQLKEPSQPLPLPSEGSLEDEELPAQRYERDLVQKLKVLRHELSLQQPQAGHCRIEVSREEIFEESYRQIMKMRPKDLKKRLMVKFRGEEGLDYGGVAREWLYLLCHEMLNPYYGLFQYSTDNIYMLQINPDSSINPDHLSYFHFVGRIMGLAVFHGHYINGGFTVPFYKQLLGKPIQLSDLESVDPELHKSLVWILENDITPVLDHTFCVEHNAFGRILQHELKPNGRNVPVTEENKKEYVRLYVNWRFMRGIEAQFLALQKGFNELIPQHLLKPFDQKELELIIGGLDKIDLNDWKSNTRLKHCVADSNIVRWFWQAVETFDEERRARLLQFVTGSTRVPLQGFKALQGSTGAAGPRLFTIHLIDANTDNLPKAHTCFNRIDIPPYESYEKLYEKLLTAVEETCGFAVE

SMILES	IC50 (Smurf-1) [nM]	IC50 (Smurf-2; [1]) [nM]	IC50 (Smurf-2) [nM]
Cc1c(NC(=O)c2noc3c2CCc2cc(CC(C)C)ccc2-3)c(=O)n(-c2ccccc2)n1C [Example 1, N-(1,5-Dimethyl-3-oxo-2-phenyl-2,3-dihydro-1H-pyrazol-4-yl)-7-isobutyl-4,5-dihydronaphtho[2,1-d]isoxazole-3-carboxamide]	240	5600	–
COc1ccc2c(c1)CCCc1c(C(=O)Nc3c(C)n(C)n(-c4ccc(F)cc4)c3=O)noc1-2 [Example 2, N-(2-(4-Fluorophenyl)-1,5-dimethyl-3-oxo-2,3-dihydro-1H-pyrazol-4-yl)-8-methoxy-5,6-dihydro-4H-benzo[3,4]cyclohepta[1,2-d]isoxazole-3-carboxamide]	410	8550	–
Cc1c(NC(=O)c2noc3c2CCCc2cc(OC(F)(F)F)ccc2-3)c(=O)n(-c2ccccc2F)n1C [Example 3, N-(2-(2-Fluorophenyl)-1,5-dimethyl-3-oxo-2,3-dihydro-1H-pyrazol-4-yl)-8-(trifluoromethoxy)-5,6-dihydro-4H-benzo[3,4]cyclohepta[1,2-d]isoxazole-3-carboxamide]	17	830	–
Cc1c(NC(=O)c2noc3c2CCSc2cc(OC(F)(F)F)ccc2-3)c(=O)n(C2CCCCC2)n1C [Example 4, N-(2-Cyclohexyl-1,5-dimethyl-3-oxo-2,3-dihydro-1H-pyrazol-4-yl)-8-(trifluoromethoxy)-4,5-dihydrobenzo[6,7]thiepino[4,5-d]isoxazole-3-carboxamide]	2.6	725	–
COc1ccc2c(c1)CCCCc1c(C(=O)Nc3c(C)n(C)n(C4CCCCC4)c3=O)noc1-2 [Example 5, N-(2-Cyclohexyl-1,5-dimethyl-3-oxo-2,3-dihydro-1H-pyrazol-4-yl)-9-methoxy-4,5,6,7-tetrahydrobenzo[3,4]cycloocta[1,2-d]isoxazole-3-carboxamide]	91.8	8350	–
CCc1ccc2c(c1)CCc1c(C(=O)Nc3c(C)n(C)n(-c4ccccc4)c3=O)noc1-2 [Example 7, N-(1,5-dimethyl-3-oxo-2-phenyl-2,3-dihydro-1H-pyrazol-4-yl)-7-ethyl-4,5-dihydronaphtho[2,1-d]isoxazole-3-carboxamide]	568	–	> 10000
Cc1ccc(-n2c(=O)c(NC(=O)c3noc4c3CCc3cc(OC(C)C)ccc3-4)c(C)n2C)cc1 [Example 11, N-(1,5-dimethyl-3-oxo-2-(p-tolyl)-2,3-dihydro-1H-pyrazol-4-yl)-7-isopropoxy-4,5-dihydronaphtho[2,1-d]isoxazole-3-carboxamide]	1420	–	> 10000
CCc1ccc2c(c1)CCCc1c(C(=O)Nc3c(C)n(C)n(-c4ccc(F)cc4)c3=O)noc1-2 [Example 13, 8-ethyl-N-(2-(4-fluorophenyl)-1,5-dimethyl-3-oxo-2,3-dihydro-1H-pyrazol-4-yl)-5,6-dihydro-4H-benzo[3,4]cyclohepta[1,2-d]isoxazole-3-carboxamide]	272	7850	–
COc1ccc2c(c1)CCCc1c(C(=O)Nc3c(C)n(C)n(-c4ccc(C)cc4C)c3=O)noc1-2 [Example 22, N-(2-(2,4-dimethylphenyl)-1,5-dimethyl-3-oxo-2,3-dihydro-1H-pyrazol-4-yl)-8-methoxy-5,6-dihydro-4H-benzo[3,4]cyclohepta[1,2-d]isoxazole-3-carboxamide]	495	–	> 10000
COc1ccc2c(c1)CCCc1c(C(=O)Nc3c(C)n(C)n(-c4ccccc4Cl)c3=O)noc1-2 [Example 27, N-(2-(2-chlorophenyl)-1,5-dimethyl-3-oxo-2,3-dihydro-1H-pyrazol-4-yl)-8-methoxy-5,6-dihydro-4H-benzo[3,4]cyclohepta[1,2-d]isoxazole-3-carboxamide]	125	5800	–
COc1ccc2c(c1)CCCc1c(C(=O)Nc3c(C)n(C)n(-c4cccc(Cl)c4)c3=O)noc1-2 [Example 28, N-(2-(3-chlorophenyl)-1,5-dimethyl-3-oxo-2,3-dihydro-1H-pyrazol-4-yl)-8-methoxy-5,6-dihydro-4H-benzo[3,4]cyclohepta[1,2-d]isoxazole-3-carboxamide]	660	–	> 10000
COc1ccc2c(c1)CCCc1c(C(=O)Nc3c(C)n(C)n(-c4ccc(Cl)cc4)c3=O)noc1-2 [Example 29, N-(2-(4-chlorophenyl)-1,5-dimethyl-3-oxo-2,3-dihydro-1H-pyrazol-4-yl)-8-methoxy-5,6-dihydro-4H-benzo[3,4]cyclohepta[1,2-d]isoxazole-3-carboxamide]	1060	–	> 10000
CCn1c(C)c(NC(=O)c2noc3c2CCCc2cc(OC)ccc2-3)c(=O)n1-c1ccccc1Cl [Example 30, N-(2-(2-chlorophenyl)-1-ethyl-5-methyl-3-oxo-2,3-dihydro-1H-pyrazol-4-yl)-8-methoxy-5,6-dihydro-4H-benzo[3,4]cyclohepta[1,2-d]isoxazole-3-carboxamide]	680	6850	–
COc1ccc2c(c1)CCCc1c(C(=O)Nc3c(C)n(C)n(Cc4ccccc4)c3=O)noc1-2 [Example 32, N-(2-benzyl-1,5-dimethyl-3-oxo-2,3-dihydro-1H-pyrazol-4-yl)-8-methoxy-5,6-dihydro-4H-benzo[3,4]cyclohepta[1,2-d]isoxazole-3-carboxamide]	695	–	> 10000
COc1ccc2c(c1)CCCc1c(C(=O)Nc3c(C)n(C)n(C4CCCC4)c3=O)noc1-2 [Example 34, N-(2-cyclopentyl-1,5-dimethyl-3-oxo-2,3-dihydro-1H-pyrazol-4-yl)-8-methoxy-5,6-dihydro-4H-benzo[3,4]cyclohepta[1,2-d]isoxazole-3-carboxamide]	29.2	9500	–
COc1ccc2c(c1)CCCc1c(C(=O)Nc3c(C)n(C)n(C4CCCCC4)c3=O)noc1-2 [Example 35, N-(2-cyclohexyl-1,5-dimethyl-3-oxo-2,3-dihydro-1H-pyrazol-4-yl)-8-methoxy-5,6-dihydro-4H-benzo[3,4]cyclohepta[1,2-d]isoxazole-3-carboxamide]	5.9	1050	–
COc1ccc2c(c1)CCCc1c(C(=O)Nc3c(C)n(C)n(CC4CCCCC4)c3=O)noc1-2 [Example 37, N-(2-(cyclohexylmethyl)-1,5-dimethyl-3-oxo-2,3-dihydro-1H-pyrazol-4-yl)-8-methoxy-5,6-dihydro-4H-benzo[3,4]cyclohepta[1,2-d]isoxazole-3-carboxamide]	1040	–	> 10000
Cc1c(NC(=O)c2noc3c2CCCc2cc(OC(F)(F)F)ccc2-3)c(=O)n(Cc2ccccc2F)n1C [Example 43, N-(2-(2-fluorobenzyl)-1,5-dimethyl-3-oxo-2,3-dihydro-1H-pyrazol-4-yl)-8-(trifluoromethoxy)-5,6-dihydro-4H-benzo[3,4]cyclohepta[1,2-d]isoxazole-3-carboxamide]	58	–	–
COc1ccc2c(c1)CCCc1c(C(=O)Nc3c(C)n(C)n(Cc4ccc(F)cc4)c3=O)noc1-2 [Example 57, N-(2-(4-fluorobenzyl)-1,5-dimethyl-3-oxo-2,3-dihydro-1H-pyrazol-4-yl)-8-methoxy-5,6-dihydro-4H-benzo[3,4]cyclohepta[1,2-d]isoxazole-3-carboxamide]	2700	–	–

Source: patent US20170088546A1 (priority 2014, published 2017)
